Here are results for 1 molecule from patent publication US20070248668A1, “Pharmaceutical compositions and uses thereof” (priority 2006, published 2007).

In brackets after ≈: the same amount, converted by molar mass.

Series [1] can be described thus: Rifalazil solubility in surfactants and surfactant mixtures. Type of series: physicochemical. To be noted: thermodynamic from solid. The method, then:
The solubility of rifalazil in various surfactants and surfactant mixtures was measured. Excess Rifalazil, drug substance, was equilibrated with the excipient or excipient blend at the indicated temperature for 24 hrs under constant mixing. At the end of the equilibration time, insoluble drug was removed by centrifugation and the supernatant was assayed by UV spectroscopy and/or HPLC to determine the concentration of Rifalazil.

Series [2] can be described thus: Pharmacokinetics after single peroral 5 mg rifalazil, fed and fasted. Type of series: in vivo. To be noted: liquid-filled vs microgranulated, beagle dogs. The method, then:
Pharmacokinetic parameters were determined following a single peroral administration of 5 mg of rifalazil in healthy male beagle dogs. The rifalazil was formulated either as a liquid-filled capsule of Example 5 or as a powder-filled capsule containing microgranulated rifalazil as described in U.S. Pat. No. 5,547,683.
Both formulations were administered under fed and fasted conditions. All animals were fasted overnight prior to dosing. Animals designated as “fed” were administered a blended combination of dog chow and water in a 1:3 ratio (e.g. 250 g chow and 750 g water) via oral gavage at a dose volume of 20 mL/kg within approximately 30 minutes prior to dosing and food was provided Ad-libitum after approximately 4 hours following dosing. Animals in “fasted” groups were not fed prior to dosing and food was withheld until after approximately 4 hours after dosing. […]
Pharmacokinetic endpoints and parameters were calculated by noncompartmental analysis (NCA) using WinNonlin®.
The pharmacokinetic parameters Tmax, Cmax, AUCt, AUC∞, T1/2 (elimination), and F (bioavailability) were calculated as well as the coefficient of variation (CV) in each. […]

Usually solubility stands for the concentration that dissolves in the medium under given conditions. `CO[C@H]1/C=C/O[C@@]2(C)Oc3c(C)c(O)c4c(=O)c(c5oc6cc(N7CCN(CC(C)C)CC7)cc(O)c6nc-5c4c3C2=O)NC(=O)/C(C)=C\C=C\[C@H](C)[C@H](O)[C@@H](C)[C@@H](O)[C@@H](C)[C@H](OC(C)=O)[C@@H]1C` [Rifalazil]: the solubility at 24 h worked out at 15.5 mg/mL (≈ 16.5 mM) in series [1] (Formulation M1 (excipient blend), aqueous with cosolvent or surfactant or cyclodextrin, in Formulation M1, 24 hrs equilibration); 25.8 mg/mL (≈ 27.4 mM) in series [1] (Formulation M3 (excipient blend), aqueous with cosolvent or surfactant or cyclodextrin, in Formulation M3, 24 hrs equilibration); 34.1 mg/mL (≈ 36.2 mM) in series [1] (Formulation M4 (excipient blend), aqueous with cosolvent or surfactant or cyclodextrin, in Formulation M4, 24 hrs equilibration); 28.4 mg/mL (≈ 30.1 mM) in series [1] (Formulation M5 (excipient blend), aqueous with cosolvent or surfactant or cyclodextrin, in Formulation M5, 24 hrs equilibration); 30.8 mg/mL (≈ 32.8 mM) in series [1] (Formulation M6 (excipient blend), aqueous with cosolvent or surfactant or cyclodextrin, in Formulation M6, 24 hrs equilibration); 26.9 mg/mL (≈ 28.6 mM) in series [1] (Formulation M8 (excipient blend), aqueous with cosolvent or surfactant or cyclodextrin, in Formulation M8, 24 hrs equilibration). The solubility at 24 h worked out at 19.6 mg/mL (≈ 20.8 mM) in series [1] (Formulation M9 (excipient blend), aqueous with cosolvent or surfactant or cyclodextrin, in Formulation M9, 24 hrs equilibration); 36.9 mg/mL (≈ 39.2 mM) in series [1] (Formulation M10 (excipient blend), aqueous with cosolvent or surfactant or cyclodextrin, in Formulation M10, 24 hrs equilibration); 23 mg/mL (≈ 24.4 mM) in series [1] (Formulations A and B (excipient blend), aqueous with cosolvent or surfactant or cyclodextrin, in Formulations A and B, 24 hrs equilibration); 21 mg/mL (≈ 22.3 mM) in series [1] (Formulations C and D (excipient blend), aqueous with cosolvent or surfactant or cyclodextrin, in Formulations C and D, 24 hrs equilibration); 35 mg/mL (≈ 37.2 mM) in series [1] (aqueous with cosolvent or surfactant or cyclodextrin, in Cremophor ELP, 24 hrs equilibration at 37° C.); 23 mg/mL (≈ 24.4 mM) in series [1] (aqueous with cosolvent or surfactant or cyclodextrin, in Cremophor RH40, 24 hrs equilibration at 37° C.). Also, the solubility at 24 h in series [1] (aqueous with cosolvent or surfactant or cyclodextrin, in Labrafil M 1944 CS, 24 hrs equilibration) was determined as 41.6 mg/mL (≈ 44.2 mM); in series [1] (aqueous with cosolvent or surfactant or cyclodextrin, in Labrafil M 19944 CS:Etocas 35 (5:1), 24 hrs equilibration) it was 29 mg/mL (≈ 30.8 mM); in series [1] (aqueous with cosolvent or surfactant or cyclodextrin, in Labrasol, 24 hrs equilibration) it was 23 mg/mL (≈ 24.4 mM); in series [1] (aqueous with cosolvent or surfactant or cyclodextrin, in Lauroglycol 90, 24 hrs equilibration), 40 mg/mL (≈ 42.5 mM); in series [1] (aqueous with cosolvent or surfactant or cyclodextrin, in TPGS, 24 hrs equilibration at 37° C.), 22 mg/mL (≈ 23.4 mM); in series [1] (oil or lipid, in Oleic Acid, 24 hrs equilibration), 59 mg/mL (≈ 62.7 mM). The solubility at 24 h in series [1] (oil or lipid, in Peceol, 24 hrs equilibration) is 14 mg/mL (≈ 14.9 mM); in series [1] (organic solvent or mixture, in PEG 400, 24 hrs equilibration) it was 8 mg/mL (≈ 8.5 mM); in series [1] (organic solvent or mixture, in PEG 1500, equilibration at 60° C. to melt PEG 1500), 62 mg/mL (≈ 65.9 mM). Besides, in series [2], the “effect of changes in the formulation upon the elimination half-life (T1/2)” value is reported as “no effect”.
